Test results reported in ChEMBL document CHEMBL5442175, “EUbOPEN Chemogenomics Library - PDSP Secondary Binding” (2024).

What was measured:
[1] = target: T1, Alpha-2C adrenergic receptor (Homo sapiens, UniProt P18825); assay: (§1) PDSP Secondary Binding target: ADRA2C - Compounds are tested at 10 uM concentration, plate are incubated at room temperature in the dark for 90 minutes. Reaction are stopped by vacuum filtration onto 0.3% polyethyleneimine soaked filter mats using Filtermate harvester. Scintillation cocktail is then melted onto microwave-dried filters on a hot plate and the radio activity is counted in Microbia counter.
T1 sequence (P18825 whole entry): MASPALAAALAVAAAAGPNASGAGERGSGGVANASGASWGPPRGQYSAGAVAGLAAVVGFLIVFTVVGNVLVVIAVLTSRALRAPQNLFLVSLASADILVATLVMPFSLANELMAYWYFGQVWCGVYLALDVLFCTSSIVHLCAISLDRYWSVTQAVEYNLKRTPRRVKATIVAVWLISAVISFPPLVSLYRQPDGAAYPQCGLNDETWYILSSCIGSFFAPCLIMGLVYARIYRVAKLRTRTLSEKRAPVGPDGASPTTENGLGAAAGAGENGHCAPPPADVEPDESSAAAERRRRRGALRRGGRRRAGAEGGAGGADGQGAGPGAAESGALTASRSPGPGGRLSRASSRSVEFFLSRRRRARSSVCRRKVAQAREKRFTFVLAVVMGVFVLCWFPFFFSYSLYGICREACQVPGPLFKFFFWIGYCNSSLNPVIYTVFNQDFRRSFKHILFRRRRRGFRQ

Histamine H1 receptor = Histamine H1 receptor (Homo sapiens, UniProt P35367); assay: as §1, with “HRH1” for “ADRA2C”
Sequence of Histamine H1 receptor (P35367 whole entry): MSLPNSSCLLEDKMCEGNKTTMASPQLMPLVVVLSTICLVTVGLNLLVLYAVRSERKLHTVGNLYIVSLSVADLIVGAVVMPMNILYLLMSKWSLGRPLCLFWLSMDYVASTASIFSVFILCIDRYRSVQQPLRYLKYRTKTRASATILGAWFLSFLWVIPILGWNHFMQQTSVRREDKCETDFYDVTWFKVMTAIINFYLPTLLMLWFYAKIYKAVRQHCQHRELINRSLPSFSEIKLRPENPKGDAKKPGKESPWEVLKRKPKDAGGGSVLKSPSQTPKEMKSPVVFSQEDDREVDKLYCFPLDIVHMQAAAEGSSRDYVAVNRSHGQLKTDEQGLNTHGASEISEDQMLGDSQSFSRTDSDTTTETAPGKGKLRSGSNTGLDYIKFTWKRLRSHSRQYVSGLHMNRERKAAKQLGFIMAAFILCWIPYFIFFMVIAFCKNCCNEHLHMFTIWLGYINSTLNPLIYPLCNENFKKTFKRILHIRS

[2] = target: T2, Alpha-1A adrenergic receptor (Homo sapiens, UniProt P35348); assay: as §1, with “ADRA1A” for “ADRA2C”
T2 sequence (P35348 whole entry): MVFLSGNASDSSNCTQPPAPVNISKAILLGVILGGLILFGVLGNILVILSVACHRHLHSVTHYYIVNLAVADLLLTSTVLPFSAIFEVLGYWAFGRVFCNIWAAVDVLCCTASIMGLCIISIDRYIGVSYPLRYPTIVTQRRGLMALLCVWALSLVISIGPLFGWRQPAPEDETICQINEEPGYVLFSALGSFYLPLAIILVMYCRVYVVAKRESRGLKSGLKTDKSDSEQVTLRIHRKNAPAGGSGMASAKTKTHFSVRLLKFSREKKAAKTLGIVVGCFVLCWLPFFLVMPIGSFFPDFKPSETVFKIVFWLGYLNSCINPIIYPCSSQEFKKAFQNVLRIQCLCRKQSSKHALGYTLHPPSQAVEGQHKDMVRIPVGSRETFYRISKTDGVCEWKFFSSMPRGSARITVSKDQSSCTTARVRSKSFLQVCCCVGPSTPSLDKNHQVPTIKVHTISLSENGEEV

[3] = target: Sigma non-opioid intracellular receptor 1 (Homo sapiens, UniProt Q99720); assay: as §1, with “SIGMAR1” for “ADRA2C”
Sequence of Sigma non-opioid intracellular receptor 1 (Q99720 whole entry): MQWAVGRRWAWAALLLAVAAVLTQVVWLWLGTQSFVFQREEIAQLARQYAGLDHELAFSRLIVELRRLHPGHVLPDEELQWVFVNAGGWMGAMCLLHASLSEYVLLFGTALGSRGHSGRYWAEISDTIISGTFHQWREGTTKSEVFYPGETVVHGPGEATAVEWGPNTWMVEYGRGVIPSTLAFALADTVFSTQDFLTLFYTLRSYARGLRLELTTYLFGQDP

[4] = target: T3, 5-hydroxytryptamine receptor 2C (Homo sapiens, UniProt P28335); assay: as §1, with “HTR2C” for “ADRA2C”
T3 sequence (P28335 whole entry): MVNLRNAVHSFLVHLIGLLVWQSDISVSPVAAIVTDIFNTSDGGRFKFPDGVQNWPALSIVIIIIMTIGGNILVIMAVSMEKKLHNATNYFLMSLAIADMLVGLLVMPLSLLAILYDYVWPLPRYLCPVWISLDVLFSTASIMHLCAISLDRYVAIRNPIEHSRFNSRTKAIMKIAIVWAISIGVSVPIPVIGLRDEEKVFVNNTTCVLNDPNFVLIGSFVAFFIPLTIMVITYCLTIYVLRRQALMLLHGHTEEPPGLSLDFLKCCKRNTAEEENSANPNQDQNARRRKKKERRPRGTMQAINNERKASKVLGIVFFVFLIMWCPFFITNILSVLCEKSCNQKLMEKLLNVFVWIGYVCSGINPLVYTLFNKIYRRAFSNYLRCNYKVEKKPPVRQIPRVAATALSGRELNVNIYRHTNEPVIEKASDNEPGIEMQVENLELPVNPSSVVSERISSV

[5] = target: Sigma intracellular receptor 2 (Homo sapiens, UniProt Q5BJF2); assay: as §1, with “TMEM97” for “ADRA2C”
Sequence of Sigma intracellular receptor 2 (Q5BJF2 whole entry): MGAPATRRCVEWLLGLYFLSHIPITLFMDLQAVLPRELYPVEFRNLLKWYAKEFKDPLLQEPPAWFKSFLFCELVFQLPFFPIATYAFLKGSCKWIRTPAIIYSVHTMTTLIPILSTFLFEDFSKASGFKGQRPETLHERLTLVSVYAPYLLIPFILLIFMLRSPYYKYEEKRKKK

D(3) dopamine receptor = D(3) dopamine receptor (Homo sapiens, UniProt P35462); assay: as §1, with “DRD3” for “ADRA2C”
Sequence of D(3) dopamine receptor (P35462 whole entry): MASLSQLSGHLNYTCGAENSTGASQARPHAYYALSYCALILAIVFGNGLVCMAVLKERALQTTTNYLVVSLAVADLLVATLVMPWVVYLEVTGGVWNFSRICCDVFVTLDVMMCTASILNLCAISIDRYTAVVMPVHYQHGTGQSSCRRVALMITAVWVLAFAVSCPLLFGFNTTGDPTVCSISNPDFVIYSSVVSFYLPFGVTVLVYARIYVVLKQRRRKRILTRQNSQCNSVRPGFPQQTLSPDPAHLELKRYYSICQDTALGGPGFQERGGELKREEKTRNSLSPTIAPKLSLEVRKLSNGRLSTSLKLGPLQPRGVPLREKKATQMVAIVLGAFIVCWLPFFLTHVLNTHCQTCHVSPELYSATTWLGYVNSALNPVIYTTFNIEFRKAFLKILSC

[6] = target: T4, Alpha-2A adrenergic receptor (Homo sapiens, UniProt P08913); assay: as §1, with “ADRA2A” for “ADRA2C”
T4 sequence (P08913 whole entry): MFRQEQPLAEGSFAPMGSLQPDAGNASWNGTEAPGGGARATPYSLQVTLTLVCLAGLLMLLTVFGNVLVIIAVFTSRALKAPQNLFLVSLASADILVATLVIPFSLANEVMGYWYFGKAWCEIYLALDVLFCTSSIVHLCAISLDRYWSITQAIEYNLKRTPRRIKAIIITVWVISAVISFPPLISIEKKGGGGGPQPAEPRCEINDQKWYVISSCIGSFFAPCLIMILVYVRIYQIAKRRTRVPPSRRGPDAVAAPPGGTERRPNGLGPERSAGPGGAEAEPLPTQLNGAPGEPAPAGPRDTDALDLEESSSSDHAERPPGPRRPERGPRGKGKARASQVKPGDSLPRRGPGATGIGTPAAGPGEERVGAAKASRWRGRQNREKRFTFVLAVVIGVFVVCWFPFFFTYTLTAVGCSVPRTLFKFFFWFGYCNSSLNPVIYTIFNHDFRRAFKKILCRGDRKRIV

[7] = target: T5, 5-hydroxytryptamine receptor 3A (Homo sapiens, UniProt P46098); assay: as §1, with “HTR3A” for “ADRA2C”
T5 sequence (P46098 whole entry): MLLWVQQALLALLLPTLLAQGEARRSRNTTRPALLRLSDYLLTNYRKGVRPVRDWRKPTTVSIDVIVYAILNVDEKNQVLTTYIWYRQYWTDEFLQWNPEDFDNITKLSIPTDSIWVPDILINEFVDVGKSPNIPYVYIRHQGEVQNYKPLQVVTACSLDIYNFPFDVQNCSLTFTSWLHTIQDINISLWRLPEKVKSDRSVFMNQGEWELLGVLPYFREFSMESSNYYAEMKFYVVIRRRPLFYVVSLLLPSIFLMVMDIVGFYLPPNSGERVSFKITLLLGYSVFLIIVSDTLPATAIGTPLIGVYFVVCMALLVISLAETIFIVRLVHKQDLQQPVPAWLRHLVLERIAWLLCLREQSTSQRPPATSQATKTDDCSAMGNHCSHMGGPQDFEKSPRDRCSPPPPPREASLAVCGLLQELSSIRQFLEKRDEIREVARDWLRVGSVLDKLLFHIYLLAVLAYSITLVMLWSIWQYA

[8] = target: 5-hydroxytryptamine receptor 2A (Homo sapiens, UniProt P28223); assay: as §1, with “HTR2A” for “ADRA2C”
Sequence of 5-hydroxytryptamine receptor 2A (P28223 whole entry): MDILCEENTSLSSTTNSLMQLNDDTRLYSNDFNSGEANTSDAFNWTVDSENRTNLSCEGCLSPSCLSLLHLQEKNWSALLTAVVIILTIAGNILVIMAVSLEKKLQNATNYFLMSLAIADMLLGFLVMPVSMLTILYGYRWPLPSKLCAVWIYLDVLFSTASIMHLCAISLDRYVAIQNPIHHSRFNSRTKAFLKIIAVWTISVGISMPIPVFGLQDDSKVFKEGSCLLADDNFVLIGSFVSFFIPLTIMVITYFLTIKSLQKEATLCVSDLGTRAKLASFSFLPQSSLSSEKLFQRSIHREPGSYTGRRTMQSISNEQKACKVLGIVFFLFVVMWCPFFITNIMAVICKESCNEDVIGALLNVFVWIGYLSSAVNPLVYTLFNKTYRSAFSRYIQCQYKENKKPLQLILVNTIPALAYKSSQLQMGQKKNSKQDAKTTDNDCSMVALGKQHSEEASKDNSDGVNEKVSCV

[9] = target: 5-hydroxytryptamine receptor 1D (Homo sapiens, UniProt P28221); assay: as §1, with “HTR1D” for “ADRA2C”
Sequence of 5-hydroxytryptamine receptor 1D (P28221 whole entry): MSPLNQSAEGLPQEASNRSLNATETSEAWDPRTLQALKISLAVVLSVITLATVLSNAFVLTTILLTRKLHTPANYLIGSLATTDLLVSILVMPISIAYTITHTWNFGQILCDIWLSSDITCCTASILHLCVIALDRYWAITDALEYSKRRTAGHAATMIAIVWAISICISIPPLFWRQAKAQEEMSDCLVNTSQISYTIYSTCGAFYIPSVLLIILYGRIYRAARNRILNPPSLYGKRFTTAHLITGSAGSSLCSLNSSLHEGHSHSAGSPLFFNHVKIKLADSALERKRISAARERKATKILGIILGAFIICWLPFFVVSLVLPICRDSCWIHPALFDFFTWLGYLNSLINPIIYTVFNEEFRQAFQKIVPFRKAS

[10] = target: 5-hydroxytryptamine receptor 2B (Homo sapiens, UniProt P41595); assay: as §1, with “HTR2B” for “ADRA2C”
Sequence of 5-hydroxytryptamine receptor 2B (P41595 whole entry): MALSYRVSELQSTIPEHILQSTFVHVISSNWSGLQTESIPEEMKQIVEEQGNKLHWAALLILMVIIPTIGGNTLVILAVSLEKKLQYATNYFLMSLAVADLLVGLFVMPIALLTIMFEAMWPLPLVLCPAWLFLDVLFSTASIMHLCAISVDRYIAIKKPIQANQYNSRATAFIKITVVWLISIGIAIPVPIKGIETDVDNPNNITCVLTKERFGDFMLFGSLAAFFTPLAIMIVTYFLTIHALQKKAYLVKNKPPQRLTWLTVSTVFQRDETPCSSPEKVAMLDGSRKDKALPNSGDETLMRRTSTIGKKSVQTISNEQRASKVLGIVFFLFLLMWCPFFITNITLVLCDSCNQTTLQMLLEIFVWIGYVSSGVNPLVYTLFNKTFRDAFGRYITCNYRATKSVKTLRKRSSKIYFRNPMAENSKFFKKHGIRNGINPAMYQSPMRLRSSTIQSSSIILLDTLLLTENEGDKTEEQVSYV

[11] = target: T6, Muscarinic acetylcholine receptor M5 (Homo sapiens, UniProt P08912); assay: as §1, with “CHRM5” for “ADRA2C”
T6 sequence (P08912 whole entry): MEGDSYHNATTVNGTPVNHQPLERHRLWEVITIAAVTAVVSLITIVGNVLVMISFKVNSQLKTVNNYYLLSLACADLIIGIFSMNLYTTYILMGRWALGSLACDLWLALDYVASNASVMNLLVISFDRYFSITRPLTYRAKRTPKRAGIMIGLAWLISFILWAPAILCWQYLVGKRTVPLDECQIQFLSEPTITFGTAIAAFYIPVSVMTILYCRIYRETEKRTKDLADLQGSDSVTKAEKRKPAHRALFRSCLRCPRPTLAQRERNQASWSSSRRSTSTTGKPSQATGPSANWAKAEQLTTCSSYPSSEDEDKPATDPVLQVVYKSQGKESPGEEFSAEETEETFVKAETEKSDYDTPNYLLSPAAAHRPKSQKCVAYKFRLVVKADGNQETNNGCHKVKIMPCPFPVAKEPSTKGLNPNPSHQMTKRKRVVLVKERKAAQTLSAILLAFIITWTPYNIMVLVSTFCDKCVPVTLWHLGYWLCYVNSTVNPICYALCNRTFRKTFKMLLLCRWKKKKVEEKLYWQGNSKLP

[12] = target: 5-hydroxytryptamine receptor 5A (Homo sapiens, UniProt P47898); assay: as §1, with “HTR5A” for “ADRA2C”
Sequence of 5-hydroxytryptamine receptor 5A (P47898 whole entry): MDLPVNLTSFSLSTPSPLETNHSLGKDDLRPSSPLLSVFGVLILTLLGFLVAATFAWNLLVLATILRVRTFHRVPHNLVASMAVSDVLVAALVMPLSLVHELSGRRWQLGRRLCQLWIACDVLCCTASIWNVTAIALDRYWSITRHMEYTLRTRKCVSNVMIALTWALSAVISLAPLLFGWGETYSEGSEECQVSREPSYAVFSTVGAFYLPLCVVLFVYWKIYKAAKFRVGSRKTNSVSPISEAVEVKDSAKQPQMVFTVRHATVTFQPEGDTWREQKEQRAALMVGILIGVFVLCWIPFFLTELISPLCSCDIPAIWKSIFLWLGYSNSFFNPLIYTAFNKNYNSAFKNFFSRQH

[13] = target: T7, 5-hydroxytryptamine receptor 1A (Homo sapiens, UniProt P08908); assay: as §1, with “HTR1A” for “ADRA2C”
T7 sequence (P08908 whole entry): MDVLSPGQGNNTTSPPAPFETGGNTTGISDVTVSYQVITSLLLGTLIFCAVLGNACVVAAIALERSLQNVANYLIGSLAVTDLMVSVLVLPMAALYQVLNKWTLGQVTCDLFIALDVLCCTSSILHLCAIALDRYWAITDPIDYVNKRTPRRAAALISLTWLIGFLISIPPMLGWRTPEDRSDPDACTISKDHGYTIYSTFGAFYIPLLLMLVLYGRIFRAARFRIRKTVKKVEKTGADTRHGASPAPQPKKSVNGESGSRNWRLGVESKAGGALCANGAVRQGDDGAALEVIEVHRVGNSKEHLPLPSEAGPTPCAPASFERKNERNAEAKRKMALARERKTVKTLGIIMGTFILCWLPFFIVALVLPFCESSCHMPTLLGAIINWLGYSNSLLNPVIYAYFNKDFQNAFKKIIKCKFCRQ

[14] = target: 5-hydroxytryptamine receptor 1B (Homo sapiens, UniProt P28222); assay: as §1, with “HTR1B” for “ADRA2C”
Sequence of 5-hydroxytryptamine receptor 1B (P28222 whole entry): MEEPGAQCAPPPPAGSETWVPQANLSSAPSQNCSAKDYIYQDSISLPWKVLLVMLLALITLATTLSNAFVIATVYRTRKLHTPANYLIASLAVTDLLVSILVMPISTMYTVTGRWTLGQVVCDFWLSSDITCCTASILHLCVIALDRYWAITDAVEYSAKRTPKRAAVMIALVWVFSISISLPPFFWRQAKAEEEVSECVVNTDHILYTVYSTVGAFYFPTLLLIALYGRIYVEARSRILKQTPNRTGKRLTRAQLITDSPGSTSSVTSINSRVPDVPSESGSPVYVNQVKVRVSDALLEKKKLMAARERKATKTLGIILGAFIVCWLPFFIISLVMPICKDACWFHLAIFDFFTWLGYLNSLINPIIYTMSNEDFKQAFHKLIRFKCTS

[15] = target: T8, Alpha-2B adrenergic receptor (Homo sapiens, UniProt P18089); assay: as §1, with “ADRA2B” for “ADRA2C”
T8 sequence (P18089 whole entry): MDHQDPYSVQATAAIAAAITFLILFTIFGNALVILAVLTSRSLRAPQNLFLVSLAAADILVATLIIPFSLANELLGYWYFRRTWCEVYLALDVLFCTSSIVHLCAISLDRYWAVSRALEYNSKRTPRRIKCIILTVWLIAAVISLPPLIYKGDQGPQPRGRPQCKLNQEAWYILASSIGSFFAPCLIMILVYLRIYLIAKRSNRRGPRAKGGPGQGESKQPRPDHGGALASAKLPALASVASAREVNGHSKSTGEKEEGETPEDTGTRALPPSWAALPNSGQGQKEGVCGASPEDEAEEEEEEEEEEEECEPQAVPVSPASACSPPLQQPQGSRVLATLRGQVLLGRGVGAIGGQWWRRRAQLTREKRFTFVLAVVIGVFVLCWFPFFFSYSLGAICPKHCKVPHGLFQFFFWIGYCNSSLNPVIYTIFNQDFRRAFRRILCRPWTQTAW

[16] = target: 5-hydroxytryptamine receptor 7 (Homo sapiens, UniProt P34969); assay: as §1, with “HTR7” for “ADRA2C”
Sequence of 5-hydroxytryptamine receptor 7 (P34969 whole entry): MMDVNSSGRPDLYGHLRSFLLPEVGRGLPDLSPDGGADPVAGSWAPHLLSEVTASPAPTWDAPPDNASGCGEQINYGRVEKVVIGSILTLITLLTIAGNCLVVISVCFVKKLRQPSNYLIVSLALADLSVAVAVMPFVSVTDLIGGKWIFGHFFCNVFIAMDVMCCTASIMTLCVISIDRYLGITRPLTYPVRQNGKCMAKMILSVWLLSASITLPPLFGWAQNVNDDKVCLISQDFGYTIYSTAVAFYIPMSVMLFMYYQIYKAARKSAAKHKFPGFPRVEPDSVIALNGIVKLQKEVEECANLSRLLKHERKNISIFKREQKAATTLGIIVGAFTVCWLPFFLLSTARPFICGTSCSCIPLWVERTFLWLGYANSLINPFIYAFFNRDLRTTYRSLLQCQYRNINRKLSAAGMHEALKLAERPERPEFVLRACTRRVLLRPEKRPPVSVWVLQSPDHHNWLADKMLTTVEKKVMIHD

**Q.** For `CCCCN1CCC(COC(=O)c2cc(Cl)c(N)c3c2OCCO3)CC1`, which Ki [1] is on record?
**A.** 673 nM

**Q.** And the Ki (Histamine H1 receptor)?
**A.** 4660 nM

**Q.** What about the Ki [2] of the same compound?
**A.** 1850 nM

**Q.** And the Ki [3]?
**A.** 31.7 nM

**Q.** And the Ki [4]?
**A.** 635 nM

**Q.** And the Ki [5]?
**A.** 64.8 nM

**Q.** And the Ki (D(3) dopamine receptor)?
**A.** 669 nM

**Q.** And the Ki [6]?
**A.** 1530 nM

**Q.** And the Ki [7]?
**A.** 1310 nM

**Q.** What about the Ki [8] of the same compound?
**A.** 964 nM

**Q.** What about the Ki [9] of the same compound?
**A.** 3780 nM

**Q.** And the Ki [10]?
**A.** 52 nM

**Q.** Which Ki [3] does the source give for `Cc1nn(C)c(C)c1-c1cccc2c1CC[C@H](N(C)C)C2` here?
**A.** 158 nM

**Q.** What about the Ki [11] of the same compound?
**A.** 308 nM

**Q.** What about the Ki [5] of the same compound?
**A.** 1120 nM

**Q.** And the Ki [12]?
**A.** 75.2 nM

**Q.** What about the Ki [13] of the same compound?
**A.** 2420 nM

**Q.** What about the Ki [6] of the same compound?
**A.** 647 nM

**Q.** And the Ki [7]?
**A.** 261 nM

**Q.** What about the Ki [14] of the same compound?
**A.** 10.2 nM

**Q.** And the Ki [9]?
**A.** 5.5 nM

**Q.** What about the Ki [15] of the same compound?
**A.** 108 nM

**Q.** And the Ki [16]?
**A.** 2.3 nM
